Measured values published in paper PMC11243598, “Inhibition of Monoamine Oxidases by Pyridazinobenzylpiperidine Derivatives” (Molecules, 2024).

Columns and labels:
MAO-B [1] = target: T1, MAO-B (Homo sapiens, UniProt P27338); test: Reversibility of MAO-B inhibition by dialysis; type: biochemical; parameters: purchased Sigma-Aldrich; settings: dialysis, compared with safinamide and pargyline
T1 sequence (P27338 1-520): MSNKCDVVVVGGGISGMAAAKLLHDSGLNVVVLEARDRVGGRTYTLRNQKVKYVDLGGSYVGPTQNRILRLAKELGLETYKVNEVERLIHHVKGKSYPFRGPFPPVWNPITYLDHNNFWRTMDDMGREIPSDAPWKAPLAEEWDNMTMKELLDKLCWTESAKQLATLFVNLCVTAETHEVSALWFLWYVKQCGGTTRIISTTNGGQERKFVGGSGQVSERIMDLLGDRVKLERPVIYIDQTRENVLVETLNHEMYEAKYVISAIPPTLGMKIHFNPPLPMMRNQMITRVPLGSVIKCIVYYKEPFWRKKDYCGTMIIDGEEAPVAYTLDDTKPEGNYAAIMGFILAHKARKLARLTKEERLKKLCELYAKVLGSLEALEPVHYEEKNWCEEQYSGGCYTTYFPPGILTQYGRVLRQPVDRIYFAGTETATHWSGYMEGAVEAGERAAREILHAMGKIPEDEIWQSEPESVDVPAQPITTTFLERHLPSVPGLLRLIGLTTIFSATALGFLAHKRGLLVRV

[2] = PAMPA for blood-brain barrier permeation; type: in vitro ADME
hMAO-A = target: T2, hMAO-A (Homo sapiens, UniProt P21397); test: Inhibition of recombinant hMAO-A, kynuramine substrate, continuous absorbance method
T2 sequence (P21397 1-527): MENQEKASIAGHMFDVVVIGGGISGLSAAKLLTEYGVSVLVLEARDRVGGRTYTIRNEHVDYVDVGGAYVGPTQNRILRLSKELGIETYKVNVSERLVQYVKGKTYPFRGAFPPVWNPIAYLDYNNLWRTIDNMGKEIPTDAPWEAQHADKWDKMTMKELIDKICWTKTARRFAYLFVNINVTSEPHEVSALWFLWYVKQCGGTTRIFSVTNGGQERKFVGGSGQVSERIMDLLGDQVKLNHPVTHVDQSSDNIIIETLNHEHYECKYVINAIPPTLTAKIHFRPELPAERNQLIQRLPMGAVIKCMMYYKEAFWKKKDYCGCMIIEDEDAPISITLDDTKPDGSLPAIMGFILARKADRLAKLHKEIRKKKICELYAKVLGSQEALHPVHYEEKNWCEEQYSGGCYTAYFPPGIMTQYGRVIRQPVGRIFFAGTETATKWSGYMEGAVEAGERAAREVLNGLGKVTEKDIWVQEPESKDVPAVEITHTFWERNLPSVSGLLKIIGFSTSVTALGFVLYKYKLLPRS

MAO-B [3] = target: T1, MAO-B; settings: ratio of IC50 values within the S series
MAO-B [4] = target: T1, MAO-B; test: biochemical
MAO-B [5] = target: T1, MAO-B; test: MAO-B inhibition kinetics (Lineweaver-Burk and secondary plots); type: biochemical; parameters: purchased Sigma-Aldrich
MAO-B [6] = settings: cited from earlier work

| Reversibility of MAO-B inhibition (MAO-B [1]) | Experimental Pe ([2]; PAMPA-BBB, pH 7.4) | Papp ([2]; PAMPA-BBB, pH 7.4, read-out: Experimental Pe) | IC50 (hMAO-A) | remaining activity at 10 µM (hMAO-A; read-out: Residual Activity at 10 µM (%) MAO-A) | Times higher MAO-B inhibition than other derivatives (MAO-B [3]) | IC50 (MAO-B [4]) | remaining activity at 10 µM (MAO-B [4]; read-out: Residual Activity at 10 µM (%) MAO-B) | Type of MAO-B inhibition (MAO-B [5]; LB plots, five substrate and three inhibitor concentrations) | Ki (MAO-B [5]; secondary plot of LB slopes, benzylamine substrate) | Structure (SMILES) | Prediction (BBB permeation class) ([2]; class from Pe) | IC50 (MAO-B [6]) |
| --- | --- | --- | --- | --- | --- | --- | --- | --- | --- | --- | --- | --- |
| reversible | 5.75 ×10⁻⁶ cm/s | 5.75 ± 0.13 ×10⁻⁶ cm/s | 3860 ± 770 nM | 25.6 ± 3.85% | 4.82–53.94 times | 203 ± 4 nM | -24.6 ± 8.51% | competitive | 155 ± 50 nM | O=C(Cn1nc(N2CCC(Cc3ccccc3)CC2)ccc1=O)NN=Cc1cccc(Cl)c1 [Compound S5, N′-3-chlorobenzylidene-2-(3-(4-benzylpiperidin-1-yl)-6-oxopyridazin-1(6H)-yl)acetohydrazide] | CNS+ (Pe (10^−6 cm·s^−1) > 4.00: CNS+ (high permeation)) | – |
| – | – | – | – | – | – | – | – | – | – | O=C(Cn1nc(N2CCOCC2)ccc1=O)NN=Cc1ccc(Cl)cc1 [TR16] | – | 170 nM |
